Molecules are shown by their SMILES. Counter-ions that a name gives are not always drawn.

The target of the test is T1, human GluN1/GluN2B NMDA receptors (Homo sapiens, UniProt Q13224).
T1 construct: expressed in transfected cells
Description: Calcium flux (FLIPR) assay on cloned human NR1/GluN2B ion channels expressed in mammalian cells (standard and HTS variants). It is filed as cell-based. Conditions: cells expressing human GluN1/GluN2B, glutamate and glycine co-agonists. In outline:
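Calcium influx read by FLIPR after co-agonist addition (glycine 10 μM, glutamate near EC40) following 5 min compound preincubation, with signal normalized to control wells.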
On the technique in general: Calcium assays in cells follow changes in intracellular calcium, usually with a dye or a luminescent sensor.

T1 sequence (Q13224 27-1484, other chains not shown): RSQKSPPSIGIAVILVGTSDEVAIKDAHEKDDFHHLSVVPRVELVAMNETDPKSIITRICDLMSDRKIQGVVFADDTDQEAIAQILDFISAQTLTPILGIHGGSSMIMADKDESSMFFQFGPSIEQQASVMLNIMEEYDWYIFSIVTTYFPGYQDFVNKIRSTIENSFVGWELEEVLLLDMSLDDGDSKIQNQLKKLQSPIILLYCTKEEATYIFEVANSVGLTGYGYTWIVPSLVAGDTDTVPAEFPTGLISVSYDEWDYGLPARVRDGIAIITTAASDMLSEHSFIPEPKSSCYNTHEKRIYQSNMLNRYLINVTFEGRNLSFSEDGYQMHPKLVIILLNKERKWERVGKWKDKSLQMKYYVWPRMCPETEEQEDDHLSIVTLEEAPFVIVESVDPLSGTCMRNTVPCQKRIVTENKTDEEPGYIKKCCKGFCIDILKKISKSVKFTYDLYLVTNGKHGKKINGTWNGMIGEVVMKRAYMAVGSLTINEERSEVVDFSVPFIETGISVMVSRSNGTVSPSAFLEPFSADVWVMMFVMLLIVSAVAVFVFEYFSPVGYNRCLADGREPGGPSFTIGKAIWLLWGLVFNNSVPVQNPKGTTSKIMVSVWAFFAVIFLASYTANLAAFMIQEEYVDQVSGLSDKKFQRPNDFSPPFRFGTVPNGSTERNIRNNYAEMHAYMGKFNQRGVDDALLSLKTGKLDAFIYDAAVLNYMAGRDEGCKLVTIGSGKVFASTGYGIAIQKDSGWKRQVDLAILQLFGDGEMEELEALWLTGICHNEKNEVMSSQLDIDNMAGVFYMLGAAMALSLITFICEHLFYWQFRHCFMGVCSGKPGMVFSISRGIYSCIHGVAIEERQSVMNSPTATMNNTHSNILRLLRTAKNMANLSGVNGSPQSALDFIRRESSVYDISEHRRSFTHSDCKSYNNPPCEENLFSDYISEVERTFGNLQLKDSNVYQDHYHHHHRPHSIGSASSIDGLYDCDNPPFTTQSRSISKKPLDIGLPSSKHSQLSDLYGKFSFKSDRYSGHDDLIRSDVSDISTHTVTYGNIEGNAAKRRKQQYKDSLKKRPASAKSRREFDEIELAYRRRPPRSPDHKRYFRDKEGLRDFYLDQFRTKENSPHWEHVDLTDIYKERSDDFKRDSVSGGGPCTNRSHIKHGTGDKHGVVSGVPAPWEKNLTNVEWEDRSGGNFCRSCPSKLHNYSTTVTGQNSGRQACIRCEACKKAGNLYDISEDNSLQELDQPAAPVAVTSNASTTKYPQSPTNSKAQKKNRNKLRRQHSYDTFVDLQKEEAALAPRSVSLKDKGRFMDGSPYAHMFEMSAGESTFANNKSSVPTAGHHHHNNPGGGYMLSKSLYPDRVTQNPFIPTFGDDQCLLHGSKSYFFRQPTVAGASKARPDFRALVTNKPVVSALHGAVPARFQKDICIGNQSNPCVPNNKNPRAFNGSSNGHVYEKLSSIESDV

Consider `Cc1cncc(Cn2ncc3ncc(-c4cccc(C(F)(F)F)c4)cc32)c1` [Example 167, 1-[(5-Methyl-3-pyridyl)methyl]-6-[3-(trifluoromethyl)phenyl]pyrazolo[4,3-b]pyridine], for which the IC50 – broadly, the concentration needed to halve the response being measured – was found to be 250 nM.

Consider `Cc1nnc(Cn2nc(F)c3ncc(-c4ccc(F)c(C(C)(F)F)c4)cc32)o1` [Example 105, 2-[[6-[3-(1,1-Difluoroethyl)-4-fluoro-phenyl]-3-fluoro-pyrazolo[4,3-b]pyridin-1-yl]methyl]-5-methyl-1,3,4-oxadiazole], for which the IC50 is 367 nM.

As for `Cc1ccc(-c2cnc3cnn(Cc4cccnc4)c3c2)s1` [Example 139, 6-(5-Methyl-2-thienyl)-1-(3-pyridylmethyl)pyrazolo[4,3-b]pyridine], the concentration for half-maximal inhibition (IC50) stood at 89 nM.

Consider `Fc1ccc(-c2cnc3cnn(Cc4nnc(C5CC5)o4)c3c2)cc1C(F)F` [Example 99, 2-Cyclopropyl-5-[[6-[3-(difluoromethyl)-4-fluoro-phenyl]pyrazolo[4,3-b]pyridin-1-yl]methyl]-1,3,4-oxadiazole], for which the IC50 turned out to be 70 nM.

Turning to `CCc1nnc(Cn2ncc3ncc(-c4ccc(F)c(C(F)F)c4)cc32)s1` [Example 125, 2-[[6-[3-(Difluoromethyl)-4-fluoro-phenyl]pyrazolo[4,3-b]pyridin-1-yl]methyl]-5-ethyl-1,3,4-thiadiazole], the IC50 is 138 nM.

Regarding `FC(F)(F)c1cccc(-c2cnc3cnn(Cc4ncon4)c3c2)c1` [Example 20, 3-[[6-[3-(Trifluoromethyl)phenyl]pyrazolo[4,3-b]pyridin-1-yl]methyl]-1,2,4-oxadiazole], the IC50 amounted to 751 nM.

Regarding `Fc1ccc(-c2cnc3cnn(Cc4cncc(OC(F)F)c4)c3c2)cc1F` [Example 194, 1-[[5-(Difluoromethoxy)-3-pyridyl]methyl]-6-(3,4-difluorophenyl)pyrazolo[4,3-b]pyridine], the IC50 was 850 nM.

On to `Fc1cccc(Cn2ncc3ncc(-c4cccc(C(F)(F)F)c4)cc32)c1` [Example 22, 1-[(3-Fluorophenyl)methyl]-6-[3-(trifluoromethyl)phenyl]pyrazolo[4,3-b]pyridine hydrochloride salt], for which the IC50 was 1820 nM.

In the case of `FC(F)Oc1cc(-c2cnc3cnn(Cc4cn[nH]c4)c3c2)ccc1Cl` [Example 41, 6-[4-Chloro-3-(difluoromethoxy)phenyl]-1-(1H-pyrazol-4-ylmethyl)pyrazolo[4,3-b]pyridine], the IC50 was determined as 423 nM.

For the molecule `Fc1ccc(-c2cnc3cnn(Cc4ccccn4)c3c2)cc1` [Example 149, 6-(4-Fluorophenyl)-1-(2-pyridylmethyl)pyrazolo[4,3-b]pyridine], the IC50 turned out to be 3460 nM.

As for `CC(=O)Nc1nnc(Cn2ncc3ncc(-c4ccc(F)c(C(F)F)c4)cc32)s1` [Example 128, N-(5-((6-(3-(Difluoromethyl)-4-fluorophenyl)-1H-pyrazolo[4,3-b]pyridin-1-yl)methyl)-1,3,4-thiadiazol-2-yl)acetamide], the IC50 is over 2990 nM.

In the case of `Cc1nnc(Cn2ncc3ncc(-c4ccc(F)c(C(=O)O)c4)cc32)o1` [Example 293, 2-Fluoro-5-(1-((5-methyl-1,3,4-oxadiazol-2-yl)methyl)-1H-pyrazolo[4,3-b]pyridin-6-yl)benzoic acid], the IC50 is over 10000 nM.

`Cc1c(F)ccc(-c2cnc3cnn(Cc4ccc(F)nc4)c3c2)c1F` [Example 248, 6-(2,4-Difluoro-3-methyl-phenyl)-1-[(6-fluoro-3-pyridyl)methyl]pyrazolo[4,3-b]pyridine]: the IC50 came to 62 nM.

Regarding `Fc1cncc(Cn2ncc3ncc(-c4ccc(F)c(F)c4)cc32)c1` [Example 192, 6-(3,4-Difluorophenyl)-1-[(5-fluoro-3-pyridyl)methyl]pyrazolo[4,3-b]pyridine trifluoroacetate salt], the IC50 amounted to 48 nM.

In the case of `FC(F)(F)c1cccc(-c2cnc3cnn(Cc4ccccn4)c3c2)c1` [Example 162, 1-(2-Pyridylmethyl)-6-[3-(trifluoromethyl)phenyl]pyrazolo[4,3-b]pyridine], the IC50 came out at 930 nM.

Consider `Cc1nn(Cc2cccnc2)c2cc(-c3ccc(F)c(C(F)F)c3)cnc12` [Example 199, 6-[3-(Difluoromethyl)-4-fluoro-phenyl]-3-methyl-1-(3-pyridylmethyl)pyrazolo[4,3-b]pyridine], for which the IC50 stood at 34 nM.

With `Cc1cncc(Cn2ncc3ncc(-c4ccc(F)c(C(C)(F)F)c4)cc32)c1` [Example 217, 6-[3-(1,1-Difluoroethyl)-4-fluoro-phenyl]-1-[(5-methyl-3-pyridyl)methyl]pyrazolo[4,3-b]pyridine], the IC50 was 189 nM.

In the case of `Fc1ccc(-c2cnc3cnn(Cc4nnc(C(F)(F)F)o4)c3c2)cc1C(F)F` [Example 102, 2-[[6-[3-(Difluoromethyl)-4-fluoro-phenyl]pyrazolo[4,3-b]pyridin-1-yl]methyl]-5-(trifluoromethyl)-1,3,4-oxadiazole], the IC50 is 49 nM.

With `Cc1nnc(Cn2nc(C)c3ncc(-c4ccc(F)c(C(F)F)c4)cc32)s1` [Example 124, 2-[[6-[3-(Difluoromethyl)-4-fluoro-phenyl]-3-methyl-pyrazolo[4,3-b]pyridin-1-yl]methyl]-5-methyl-1,3,4-thiadiazole], the IC50 was determined as 66 nM.

With `Fc1ccc(-c2cnc3cnn(Cc4ccncn4)c3c2)cc1OC(F)F` [Example 271, 6-[3-(Difluoromethoxy)-4-fluoro-phenyl]-1-(pyrimidin-4-ylmethyl)pyrazolo[4,3-b]pyridine], the IC50 turned out to be 401 nM.

On to `Oc1nnc(Cn2ncc3ncc(-c4ccc(F)c(C(F)F)c4)cc32)s1` [Example 17, 5-[[6-[3-(Difluoromethyl)-4-fluoro-phenyl]pyrazolo[4,3-b]pyridin-1-yl]methyl]-1,3,4-thiadiazol-2-ol], for which the IC50 worked out at 64 nM.

`N#Cc1cncc(Cn2ncc3ncc(-c4cccc(C(F)F)c4)cc32)c1` [Example 157, 5-[[6-[3-(Difluoromethyl)phenyl]pyrazolo[4,3-b]pyridin-1-yl]methyl]pyridine-3-carbonitrile]: the IC50 worked out at 64 nM.

Turning to `Cc1ncccc1Cn1ncc2ncc(-c3cccc(C(F)(F)F)c3)cc21` [Example 166, 1-[(2-Methyl-3-pyridyl)methyl]-6-[3-(trifluoromethyl)phenyl]pyrazolo[4,3-b]pyridine], the IC50 is 870 nM.

For the molecule `COc1cncc(Cn2ncc3ncc(-c4ccc(Cl)c(Cl)c4)cc32)c1` [Example 215, 6-(3,4-Dichlorophenyl)-1-[(5-methoxy-3-pyridyl)methyl]pyrazolo[4,3-b]pyridine], the IC50 was 217 nM.

In the case of `FC(F)Oc1cc(-c2cnc3cnn(Cc4cccnc4)c3c2)ccc1Cl` [Example 238, 6-[4-Chloro-3-(difluoromethoxy)phenyl]-1-(3-pyridylmethyl)pyrazolo[4,3-b]pyridine], the IC50 was found to be 117 nM.

Take `Cc1nnc(Cn2ncc3ncc(-c4ccc(F)c(C)c4)cc32)o1` [Example 89, 2-[[6-(4-Fluoro-3-methyl-phenyl)pyrazolo[4,3-b]pyridin-1-yl]methyl]-5-methyl-1,3,4-oxadiazole]: the IC50 turned out to be 37 nM.

As for `Fc1ccc(-c2cnc3cnn(Cc4ccccn4)c3c2)cc1C(F)F` [Example 197, 6-[3-(Difluoromethyl)-4-fluoro-phenyl]-1-(2-pyridylmethyl)pyrazolo[4,3-b]pyridine], the IC50 amounted to 130 nM.

Regarding `Cc1noc(Cn2ncc3ncc(-c4cccc(C(F)(F)F)c4F)cc32)n1` [Example 111, 5-[[6-[2-Fluoro-3-(trifluoromethyl)phenyl]pyrazolo[4,3-b]pyridin-1-yl]methyl]-3-methyl-1,2,4-oxadiazole], the IC50 stood at 183 nM.

In the case of `Cc1nnc(Cn2ncc3ncc(-c4ccc(Cl)s4)cc32)o1` [Example 77, 2-[[6-(5-Chloro-2-thienyl)pyrazolo[4,3-b]pyridin-1-yl]methyl]-5-methyl-1,3,4-oxadiazole], the IC50 is 89 nM.

`CCc1nnc(Cn2ncc3ncc(-c4ccc(F)c(C(F)F)c4)cc32)n1C` [Example 76, 6-[3-(Difluoromethyl)-4-fluoro-phenyl]-1-[(5-ethyl-4-methyl-1,2,4-triazol-3-yl)methyl]pyrazolo[4,3-b]pyridine]: the IC50 was 3830 nM.

Consider `Cn1cnc(Cn2ncc3ncc(-c4cccc(C(F)(F)F)c4)cc32)n1` [Example 71, 1-[(1-Methyl-1,2,4-triazol-3-yl)methyl]-6-[3-(trifluoromethyl)phenyl]pyrazolo[4,3-b]pyridine], for which the IC50 turned out to be 891 nM.

Regarding `Cc1nnc(Cn2ncc3ncc(-c4ccc(Cl)c(OC(F)F)c4)cc32)o1` [Example 116, 2-[[6-[4-Chloro-3-(difluoromethoxy)phenyl]pyrazolo[4,3-b]pyridin-1-yl]methyl]-5-methyl-1,3,4-oxadiazole], the 50% inhibitory concentration (IC50) was 283 nM.

`Fc1ccc(Cn2ncc3ncc(-c4ccc(F)c(C(F)F)c4)cc32)s1` [Example 33, 6-(3-(Difluoromethyl)-4-fluorophenyl)-1-((5-fluorothiophen-2-yl)methyl)-1H-pyrazolo[4,3-b]pyridine]: the IC50 was 1030 nM.

As to `Cc1cccc(-c2cnc3cnn(Cc4cncc(F)c4)c3c2)c1` [Example 146, 1-[(5-Fluoro-3-pyridyl)methyl]-6-(m-tolyl)pyrazolo[4,3-b]pyridine], the IC50 was found to be 9 nM.

For `Fc1ccc(-c2cnc3cnn(Cc4cncc(Cl)c4)c3c2)cc1C(F)F` [Example 208, 1-[(5-Chloro-3-pyridyl)methyl]-6-[3-(difluoromethyl)-4-fluoro-phenyl]pyrazolo[4,3-b]pyridine], the IC50 was determined as 26 nM.

For the molecule `Cc1nnc(Cn2ncc3ncc(-c4cccc(C(F)(F)F)c4)cc32)o1` [Example 85, 2-Methyl-5-[[6-[3-(trifluoromethyl)phenyl]pyrazolo[4,3-b]pyridin-1-yl]methyl]-1,3,4-oxadiazole], the IC50 was determined as 143 nM.

For the molecule `Fc1cc(-c2cnc3cnn(Cc4cncc(OC(F)F)c4)c3c2)cc(F)c1F` [Example 253, 1-[[5-(Difluoromethoxy)-3-pyridyl]methyl]-6-(3,4,5-trifluorophenyl)pyrazolo[4,3-b]pyridine], the IC50 amounted to 980 nM.

These data come from patent US11530210B2, “Substituted heteroaromatic pyrazolo-pyridines and their use as GLUN2B receptor modulators” (JANSSEN PHARMACEUTICA NV, priority 2019, dated 2022).
